We go through two molecules from PMC6522473, “The Pseudomonas aeruginosa lectin LecB binds to the exopolysaccharide Psl and stabilizes the biofilm matrix” (Nature Communications, 2019).

The assay addresses T1, LecB (Pseudomonas aeruginosa, UniProt Q9HYN5).
T1 construct: purified LecB overexpressed in P. aeruginosa (lecB from PAO1, pJNLecB); homotetramer of 114 amino acid monomers
The experiment in a line: ITC ([…] K, three titrations). Format: binding.

T1 sequence (Q9HYN5 entry or part of it): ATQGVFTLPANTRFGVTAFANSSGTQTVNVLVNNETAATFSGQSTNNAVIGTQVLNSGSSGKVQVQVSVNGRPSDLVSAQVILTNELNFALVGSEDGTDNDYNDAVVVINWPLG

Take `OC[C@H]1O[C@H](O[C@@H]2C(O)O[C@H](CO)[C@@H](O)[C@@H]2O)[C@@H](O)[C@@H](O)[C@@H]1O` (stereo partly drawn) [α-1,2′ mannobiose]: binding was characterised by a dissociation constant (Kd) of 26.6 ± 2.61 µM. For `OC[C@H]1O[C@H](O[C@H]2[C@H](O)[C@@H](CO)OC(O)[C@H]2O)[C@@H](O)[C@@H](O)[C@@H]1O` (stereo partly drawn) [α-1,3′ mannobiose] the value was 33.6 ± 7.18 µM.
